Source: patent US20160143906A1, “EFFICACIOUS TREATMENT OF NSCLC AND PREDICTIVE CLINICAL MARKER OF THE RESPONSIVENESS OF A TUMOUR TO A TREATMENT” (Boehringer Ingelheim International GmbH, priority 2013, published 2016)
Entries after “also recorded” stand apart in the source; their conditions may differ. Where two headings read alike, the source gives them in different places.

Experiments:
[1] = system: NSCLC after fast progression on first-line platinum doublet chemotherapy; conditions: TITAN; fast progressing patients who failed during 1st line platinum containing therapy; cited from earlier work
[2] = system: tumors with activating EGFR mutations or the Alk translocation; conditions: monotherapy; non-squamous patients with activating EGFR mutations or Alk translocation; cited from earlier work
NSCLC = assay: clinical trial evidence as summarised (progression within 9 months or less after initiation of prior treatment); type: in vivo, human
GS-9L syngeneic rat = assay: in vivo anti-tumor efficacy, syngeneic rat tumor model GS-9L (glioblastoma); conditions: 50 mg/kg/d
Rip-Tag = assay: in vivo anti-tumor efficacy, Rip-Tag model (pancreas, murine transgenic)
Calu-6 = assay: in vivo anti-tumor efficacy, xenograft model Calu-6 (lung, non-small-cell); conditions: 50 mg/kg/d
NCI-H460 = assay: in vivo anti-tumor efficacy, xenograft model NCI-H460 (lung, non-small-cell); conditions: 25 mg/kg/d
advanced NSCLC tumours = assay: Phase 3 clinical study LUME LUNG 2 (nintedanib+pemetrexed vs placebo+pemetrexed); type: in vivo, human
Text: Continuation until Progressive Disease (PD) or unacceptable toxicity with nintedanib, placebo, pemetrexed, or a combination thereof, was permitted. […] Primary endpoint was centrally assessed PFS. Secondary endpoints included OS, investigator-assessed PFS, Response Rate (RR), safety, and Quality of Life (QoL). Stepwise selection, using Cox proportional hazards modeling and a recursive partitioning tree, identified baseline variables prognostic for PFS in Arm B (placebo) of LUME LUNG 2. […] These methods were applied to the LUME LUNG 2 Data Monitoring Committee (DMC) dataset, to develop a hypothesis that was tested and validated by three steps: (i) internal confirmation using centrally assessed PFS and internal validation using OS data of the clinical trial LL2; (ii) external validation using the data from the primary analysis of the independent clinical trial LL1 (centrally assessed PFS and internal validation using OS data); and (iii) external validation using the final OS data of the clinical trial LL1.
(§1) In the case of a significant interaction between treatment and a continuous variable, not only the categorisation delivered by the recursive partitioning was investigated but hazard ratios HR (treatment effect) were also globally estimated at different values of the interacting covariate.
(§2) Kaplan-Meier plots and Forrest Plots were further used for the graphical presentation of the results.

PAC-120 = assay: in vivo anti-tumor efficacy, xenograft model PAC-120 (prostate, hormone-dependent); conditions: 100 mg/kg/d
SKOV3 = assay: in vivo anti-tumor efficacy, xenograft model SKOV3 (ovarian); conditions: 50 mg/kg/d
[3] = system: locally advanced/metastatic NSCLC; assay: Phase 3 clinical study LUME LUNG 1 (nintedanib+docetaxel vs placebo+docetaxel); type: in vivo, human
Text: LUME LUNG 1 is a placebo-controlled phase 3 trial investigating nintedanib+docetaxel in patients with locally advanced/metastatic NSCLC progressing after one prior combination regimen.
as §1, §2

Caki-1 = assay: in vivo anti-tumor efficacy, xenograft model Caki-1 (renal); conditions: 100 mg/kg/d
HT-29 = assay: in vivo anti-tumor efficacy, xenograft model HT-29 (colorectal)
FaDu = assay: in vivo anti-tumor efficacy, xenograft model FaDu (head and neck); conditions: 100 mg/kg/d
[4] = LL1 squamous cell tumour histology
[5] = LL1 squamous cell, large tumour burden

C#Cc1cccc(Nc2ncnc3cc(OCCOC)c(OCCOC)cc23)c1 [erlotinib]
efficacy in PFS and OS compared to docetaxel or pemetrexed [1]: did not show any superior efficacy | OS improvement [2]: no OS improvements have been observed | median PFS [2]: around 20 months

COC(=O)c1ccc2c(c1)NC(=O)/C2=C(\Nc1ccc(N(C)C(=O)CN2CCN(C)CC2)cc1)c1ccccc1 [nintedanib, 3-Z-[1-(4-(N-((4-methyl-piperazin-1-yl)-methylcarbonyl)-N-methyl-amino)-anilino)-1-phenyl-methylene]-6-methoxycarbonyl-2-indolinone]
improvement in the median of both PFS and OS compared to placebo (NSCLC): superior or equal to one month | improvement in the median of both PFS and OS compared to placebo (NSCLC; adenocarcinoma NSCLC): ≥ 1.3 months | T/C (reduction of tumor size in % of the control) (GS-9L syngeneic rat): T/C 32% @ 50 mg/kg/d | Efficacy (Rip-Tag): interference with tumor | T/C (reduction of tumor size in % of the control) (Calu-6): T/C 24% @ 50 mg/kg/d | T/C (reduction of tumor size in % of the control) (NCI-H460): T/C 54% @ 25 mg/kg/d | safety (advanced NSCLC tumours; LL2): no safety issues were identified | median PFS (advanced NSCLC tumours; LL2 ITT analysis, centrally reviewed PFS): 4.4 months | Disease control (advanced NSCLC tumours; LL2 ITT, versus placebo): significantly improved | HR (OS) (advanced NSCLC tumours; LL2 adenocarcinoma, t<9 mo): 0.87 | HR (PFS) (advanced NSCLC tumours; LL2 adenocarcinoma, t<9 mo): 0.79 | HR (OS) (advanced NSCLC tumours; LL2 all): 1.01 | HR (PFS) (advanced NSCLC tumours; LL2 all): 0.84 | Improvement of median OS of nintedanib versus placebo (advanced NSCLC tumours; LL2 all): No difference; also recorded: None (OS) | median improvement of time to deterioration of cough (advanced NSCLC tumours; LL2 fast progressing patients, nintedanib versus placebo): 3.7 months | median OS (advanced NSCLC tumours; LL2 t<9 mo patient population): 10.6 months | median PFS (advanced NSCLC tumours; LL2 t<9 mo patient population): 4.1 months | T/C (reduction of tumor size in % of the control) (PAC-120): T/C 34% @ 100 mg/kg/d | T/C (reduction of tumor size in % of the control) (SKOV3): T/C 19% @ 50 mg/kg/d | HR (OS) ([3]; LL1 adenocarcinoma): 0.83 | HR (PFS) ([3]; LL1 adenocarcinoma): 0.84 | benefit in fast progressing population with cut-off of 4 or 6 months ([3]; LL1 adenocarcinoma, t<4 mo or t<6 mo): confirmed | HR (OS) ([3]; LL1 adenocarcinoma, t<9 mo): 0.75 | HR (PFS) ([3]; LL1 adenocarcinoma, t<9 mo): 0.68 | HR (OS) ([3]; LL1 all NSCLC patients): 0.94 | HR (PFS) ([3]; LL1 all NSCLC patients): 0.85 | HR (OS) [3, 4]: 1.01 | HR (PFS) [3, 4]: 0.83 | Improvement of median OS of nintedanib versus placebo [3, 4]: No benefit; also recorded: None (OS) | HR (OS) [3, 5]: 0.82 | HR (PFS) [3, 5]: 0.71 | Improvement of median PFS of nintedanib versus placebo [3, 5]: 0.9 months (PFS) | median PFS ([3]; LL1 whole NSCLC patient population, centrally assessed): 3.5 months | T/C (reduction of tumor size in % of the control) (Caki-1): T/C 13% @ 100 mg/kg/d | T/C (reduction of tumor size in % of the control) (HT-29; HT-29, 100 mg/kg/d): T/C 16% @ 100 mg/kg/d | Efficacy (HT-29; HT-29 large tumors): tumor volume reduction | T/C (reduction of tumor size in % of the control) (FaDu): T/C 11% @ 100 mg/kg/d
